The target of data set [1] is T1, Bcl-2-related protein A1 (Homo sapiens) (UniProt Q16548).
T1 sequence (whole entry): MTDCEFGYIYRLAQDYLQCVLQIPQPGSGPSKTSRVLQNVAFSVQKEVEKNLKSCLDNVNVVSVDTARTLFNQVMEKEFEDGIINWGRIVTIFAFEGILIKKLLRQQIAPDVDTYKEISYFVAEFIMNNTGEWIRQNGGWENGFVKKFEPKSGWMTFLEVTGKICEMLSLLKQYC
The data set is described as follows: Binding affinity to N-terminal His6-tagged recombinant human Bfl-1 (1 to 151 residues) expressed in Escherichia coli BL21-Gold (DE3) cells assessed as Kinact/ki incubated for 10 to 90 mins by MS analysis. The conditions noted are these: time 10-90 min.

A further data set deals with T2, Bcl-2-related protein A1 (Homo sapiens, UniProt Q16548).
T2 sequence (Q16548 whole entry): T1 sequence (whole entry)
Kind of data set: Inhibition of human recombinant N-terminal his tagged Bfl-1 (1 to 151 residues) expressed in Escherichia coli BL21-Gold (DE3) cells using HyLite Fluor 647-labeled BIM peptide as substrate incubated for 120 mins by TR-FRET assay. For orientation: In TR-FRET formats the signal depends on donor and acceptor labels being close together.

Data set [2] is described as follows: Lipophilicity, logD of compound at pH 7.4 by shake-flask method. Type of data set: physicochemical. As to conditions: buffer.
The nature of data set [3]: GSH reactivity assessed as half life at pH 7.4 incubated for 24 hrs by LC-UV-MS analysis. The data set is classed as physicochemical. As to conditions: glutathione (GSH) solution.

For orientation: IC50 means the concentration that gives 50% inhibition. With `C=CC(=O)N(Cc1ccc(OC)cc1)c1cccc(Cl)c1`, the K in data set [1] came to 7.5 M⁻¹ s⁻¹. Also, the IC50 at Bcl-2-related protein A1 was 23.4 µM.
`C=CC(=O)Nc1cc(CN2CCCC2)ccc1-c1ccc(OC)cc1C`: the K in data set [1] came to 6.8 M⁻¹ s⁻¹. Besides, at Bcl-2-related protein A1, the IC50 is 18 µM.
By logD is commonly meant lipophilicity at a set pH, counting ionised and neutral species. A low value points to a more hydrophilic compound. As usually defined, the half-life is how long it takes for the measured level to halve. With `C=CC(=O)N1CCC[C@@H]1c1ccccc1`, the logD in data set [2] is 1.7. Also, in data set [1], the K was found to be 0.7 M⁻¹ s⁻¹. For the same compound, the half-life in data set [3] was determined as 13.7 h. Moreover, the IC50 at Bcl-2-related protein A1 is 480 µM.
For the compound `C=CC(=O)N1C[C@@H](Oc2cc(Cl)c(F)cc2C#N)[C@H]1CCC` (racemic), in data set [1], the K stood at 9.5 M⁻¹ s⁻¹. Further, at Bcl-2-related protein A1, the IC50 stood at 10.4 µM.
Regarding `C=CC(=O)N(Cc1ccccc1OCC(N)=O)c1ccc(Cl)cc1`, in data set [1], the K was found to be 5.5 M⁻¹ s⁻¹. The IC50 on Bcl-2-related protein A1 came to 16.8 µM.
Turning to `C=CC(=O)N(C)[C@@H](c1ccc(Cl)cc1)C1CCOCC1` (racemic), the K in data set [1] worked out at 0.8 M⁻¹ s⁻¹. For the same compound, the IC50 at Bcl-2-related protein A1 turned out to be 90.9 µM.

The record behind these values is ChEMBL document CHEMBL5500415, “Design of a Lead-Like Cysteine-Targeting Covalent Library and the Identification of Hits to Cys55 of Bfl-1” (J Med Chem, 2024).
